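Five compound concentrations were applied to cells in 96-well plates for 48 hours; endpoints were derived by simple linear interpolation of the resulting dose-response curve. At the GI50, growth is halved.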 Calls of active or inactive are those of the source. No stated cut-off is given here; in the data, active = GI50 up to about 1.1 µM and inactive = higher.

Assay in all cases: inhibition of tumour cell growth, NCI panel, 48 h
Assay [1] concerns A549.
The subject of assay [2] is ACHN.
Assay [3] has as its system CCRF-CEM.
Assay [4] concerns DLD-1.
In assay [5] the test system is HOP-62.
The test system of assay [6] is Malme-3M.
For assay [7], the system named is OVCAR-3.
Assay [8] concerns OVCAR-4.
Assay [9] has as its system OVCAR-5.
In assay [10] the test system is SF-539.
Assay [11] deals with SK-OV-3.
In assay [12] the test system is UACC-62.
Assay [13] relates to UO-31.
The test system of assay [14] is XF498.
Assay [15] has as its system DU-145.
Assay [16] relates to MDA-N.
Assay [17] concerns NCI/ADR-RES.
The test system of assay [18] is PC-3.
In assay [19] the test system is T47D.
Assay [20] relates to HOP-18.

Turning to `OC(c1ccccc1)C1CC2C=CC1C2` (configuration not stated), the GI50 in assay [1], in assay [2], in assay [3], in [4], in assay [5] and in assay [6] was > 100 µM (inactive) in each case. Moreover, the GI50 in assay [7], in [8], in [9], in [10], in [11] and in assay [12] was > 100 µM (inactive) each time. Moreover, the GI50 in [13] and in assay [14] was > 100 µM (inactive) in each case.
As to `COc1ccc(N2C(=O)C3c4[nH]c5c(C)cccc5c4C4CCC(C(C)(C)C)CC4C3C2=O)cc1` (configuration not stated), the GI50 in assay [1] is 7 µM (inactive); in [2], 5.12 µM (inactive); in assay [3], > 10 µM (inactive); in assay [15], > 10 µM (inactive); in assay [5] it was > 10 µM (inactive); in assay [16] it was > 10 µM (inactive). Further, the GI50 in [6] is > 10 µM (inactive); in assay [17] it was > 10 µM (inactive); in [7], > 10 µM (inactive); in assay [8] it was > 10 µM (inactive); in assay [9], > 10 µM (inactive); in assay [18], 3.61 µM (inactive). In addition, the GI50 was 9.42 µM (inactive) in assay [10]; > 10 µM (inactive) in assay [11]; > 10 µM (inactive) in [19]; > 10 µM (inactive) in assay [12]; 2.72 µM (inactive) in [13].
Consider `OC12c3ccccc3C1CCCCCCCCCC21OCCCO1` (configuration not stated), for which the GI50 in assay [1], in assay [3], in [4], in [20], in assay [5] and in assay [6] was > 100 µM (inactive) throughout. Moreover, the GI50 in assay [7], in assay [8], in assay [9], in assay [10], in assay [11] and in assay [12] was > 100 µM (inactive) each time. The GI50 in assay [13] and in [14] was > 100 µM (inactive) throughout.
In the case of `CCN(CC)CCC(=O)c1ccccc1`, the GI50 in assay [1] is > 100 µM (inactive); in [2], 16.2 µM (inactive); in assay [3] it was 6.21 µM (inactive); in assay [20], 15.3 µM (inactive); in [5] it was > 100 µM (inactive); in assay [7] it was 18.6 µM (inactive). The GI50 in assay [8] was 20.5 µM (inactive); in assay [9], 21.5 µM (inactive); in assay [10], 24.8 µM (inactive); in [12] it was > 10 µM (inactive); in [13], 31.3 µM (inactive).
As to `COc1cc(O)c2c(=O)c(O)c(-c3ccc(O)c(O)c3)oc2c1` [RHAMNETIN], the GI50 is 15 µM (inactive) in assay [1]; 5.47 µM (inactive) in assay [2]; 3.61 µM (inactive) in [3]; 4.13 µM (inactive) in assay [15]; 14.6 µM (inactive) in [5]; 19.8 µM (inactive) in [16]. The GI50 is 17.7 µM (inactive) in [6]; 8.55 µM (inactive) in assay [17]; 3.9 µM (inactive) in assay [7]; 0.403 µM (active) in assay [8]; 19.7 µM (inactive) in assay [9]; 19.7 µM (inactive) in [18]. Besides, the GI50 in assay [11] was 20 µM (inactive); in assay [19], 19.6 µM (inactive); in assay [12] it was 7.91 µM (inactive); in [13], 6.05 µM (inactive).

The record behind these values is ChEMBL document CHEMBL1201862, “PubChem BioAssay data set” (2004).
